According to patent US20130053381A1, “2,4-DIOXO-1,4-DIHYDRO-2H-QUINAZOLIN-3-YL-SULFONAMIDE DERIVATIVES” (NOVARTIS AG, priority 2010, published 2013):
Read-outs that look alike come from different tables or passages of the source.

What was measured:
AMPA receptor = experiment: [3H]CNQX binding test (AMPA-receptor binding); parameters: species or system rat
Method: CNQX binding test (Honore et al. Biochem. Pharmacol. 1989, 38: 3207-3212). This test is performed as follows.
Brain membranes: The animals are sacrificed, the brain removed and homogenized in 10 volumes of ice-cold 10% sucrose with a glass/Teflon homogenizer at positions 5 for 30 sec. The membranes are centrifuged at 1000×g for 10 min, and the supernatant centrifuged at 20,000×g for 15 min. The resulting pellet is resuspended in 10 volumes of cold water with a tissue homogenizer (Brinkman Polytron) at position 5 for 15 sec and the suspension centrifuged at 8000×g for 10 min. The supernatant including the buffy layer is centrifuged at 40,000×g for 20 min, the pellet resuspended in 5 volumes of water and the suspension frozen (20-30 min in dry ice/MeOH) and thawed (water-bath at 37° C.) twice. The suspension is centrifuged at 40,000×g for 20 min, the pellet resuspended in 50 mM HEPES/KOH, pH 7.5, and centrifuged at 40,000×g for 10 min. The final pellet is resuspended with a glass/Teflon homogenizer in 5 volumes of HEPES/KOH buffer; 2 mL aliquots are frozen and stored in liquid nitrogen.
Pretreatment of membranes: Membranes are thawed at 35° C. and once washed with 50 mM HEPES/KOH by centrifugation at 39,000×g for 10 min. The final pellet is resuspended with a glass/Teflon homogenizer in the same buffer.
Radioligand binding assay: It is performed using 96-well microtiterplates in a volume of 0.3 mL of 50 mM HEPES/KOH, pH 7.2, 100 μg membrane protein, 5 nM [^3H]-CNQX (NEN) and the compound to be tested. Incubation is performed at 4° C. for 40 min and the reaction is terminated by centrifugation (Sigma 4K10) at 3700×g for 30 min. The pellet is washed once with cold buffer and then dissolved in 0.02 mL of the tissue solubilizer Soluene for 20 min. Two hundred μL of the scintillation fluid Microscint 20 (Packard) are added and the radioactivity is counted in a Packard Topcount scintillation counter at an efficiency of 40-45%. Nonspecific binding is defined by 10 μM CNQX. Assays are performed in triplicate.

OF1 mice = experiment: Maximal electroshock test (MES Test); assay type: in vivo; conditions: for responders at 50 mg/kg: p.o.
Procedure, shortened: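 Readout: fraction of five OF1 mice protected, meaning seizure duration 3 s or less, after a 50 Hz, 18 mA, 0.2 s temporal-electrode shock. Dosing was oral, usually 50 mg/kg, one hour beforehand; ED50 values were derived and post-shock blood taken for exposure.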

[1] = Table 2 parent compounds, rat, read-out: [3H]CNQX IC50 AMPA receptor binding, rat
[2] = Mus musculus, po, pre-treatment time −1 h, read-out: %-Protection
[3] = Table 1A parent compounds, AMPA-receptor binding as described for Table 2, read-out: IC50

| SMILES | IC50 (AMPA receptor; [3]) [nM] | other results |
| --- | --- | --- |
| Cn1nccc1-c1cc2c(=O)n(NS(C)(=O)=O)c(=O)[nH]c2cc1C(F)(F)F [Example 1.0, N-[6-(2-methyl-2H-pyrazol-3-yl)-2,4-dioxo-7-trifluoromethyl-1,4-dihydro-2H-quinazolin-3-yl]-methanesulfonamide] | – | IC50 (AMPA receptor; [1]): 208 nM; responders at 50 mg/kg (OF1 mice; [2]): 20% |
| CCc1cc2[nH]c(=O)n(NS(C)(=O)=O)c(=O)c2cc1-c1ccnn1C [Example 2.0, N-[7-ethyl-6-(2-methyl-2H-pyrazol-3-yl)-2,4-dioxo-1,4-dihydro-2H-quinazolin-3-yl]-methanesulfonamide] | – | IC50 (AMPA receptor; [1]): 257 nM; responders at 50 mg/kg (OF1 mice; [2]): 80% |
| CC(C)c1cc2[nH]c(=O)n(NS(C)(=O)=O)c(=O)c2cc1-c1ccnn1C [Example 3.0, N-[7-isopropyl-6-(2-methyl-2H-pyrazol-3-yl)-2,4-dioxo-1,4-dihydro-2H-quinazolin-3-yl]-methanesulfonamide] | – | IC50 (AMPA receptor; [1]): 189 nM; responders at 15 mg/kg (OF1 mice; Mus musculus, po, Dose: 15 mg/kg, p.o. (footnote c), pre-treatment time −1 h, read-out: %-Protection): 100%; responders at 50 mg/kg (OF1 mice; Mus musculus, po, Table 5, pre-treatment time −0.25 h, read-out: %-Protection): 0%; responders at 50 mg/kg (OF1 mice; Mus musculus, po, Table 5, pre-treatment time −0.5 h, read-out: %-Protection): 100%; responders at 50 mg/kg (OF1 mice; Mus musculus, po, Table 5, pre-treatment time −1 h, read-out: %-Protection): 100% |
| CS(=O)(=O)Nn1c(=O)[nH]c2cc(C(F)(F)F)c(-n3ccnc3)cc2c1=O [Example 4.0, N-(6-imidazol-1-yl-2,4-dioxo-7-trifluoromethyl-1,4-dihydro-2H-quinazolin-3-yl)-methanesulfonamide] | – | IC50 (AMPA receptor; [1]): 42 nM; ED50 (OF1 mice; Mus musculus, ip, pre-treatment time −0.25 h (footnote g)): 10.7 mg/kg; responders at 50 mg/kg (OF1 mice; [2]): 0%; %-seizure protection (OF1 mice; single 50 mg/kg p.o. dose, 30 min after treatment, MES Test): 0% |
| CC(C)n1nccc1-c1cc2c(=O)n(NS(C)(=O)=O)c(=O)[nH]c2cc1C(F)(F)F [Example 5.0, N-[6-(2-isopropyl-2H-pyrazol-3-yl)-2,4-dioxo-7-trifluoromethyl-1,4-dihydro-2H-quinazolin-3-yl]-methanesulfonamide] | – | IC50 (AMPA receptor; [1]): 87 nM; responders at 50 mg/kg (OF1 mice; [2]): 80% |
| CC(C)n1nccc1-c1cc2c(=O)n(NS(C)(=O)=O)c(=O)[nH]c2cc1C(F)F [Example 6.0, N-[7-difluoromethyl-6-(2-isopropyl-2H-pyrazol-3-yl)-2,4-dioxo-1,4-dihydro-2H-quinazolin-3-yl]-methanesulfonamide] | – | IC50 (AMPA receptor; [1]): 110 nM; responders at 50 mg/kg (OF1 mice; [2]): 80%; responders at 25 mg/kg (OF1 mice; Mus musculus, po, Dose: 25 mg/kg, p.o. (footnote b), pre-treatment time −1 h, read-out: %-Protection): 20% |
| CS(=O)(=O)Nn1c(=O)[nH]c2cc(C(F)(F)F)c(-n3cccc3)cc2c1=O [Example 8.0, N-(2,4-dioxo-6-pyrrol-1-yl-7-trifluoromethyl-1,4-dihydro-2H-quinazolin-3-yl)-methanesulfonamide] | – | IC50 (AMPA receptor; [1]): 162 nM; responders at 50 mg/kg (OF1 mice; [2]): 40% |
| CS(=O)(=O)Nn1c(=O)[nH]c2cc(C(F)(F)F)c(-n3cnnc3)cc2c1=O [Example 9.0, N-(2,4-dioxo-6-[1,2,4]triazol-4-yl-7-trifluoromethyl-1,4-dihydro-2H-quinazolin-3-yl)-methanesulfonamide] | – | IC50 (AMPA receptor; [1]): 46 nM; responders at 50 mg/kg (OF1 mice; Mus musculus, po, pre-treatment time −2 h (footnote a), read-out: %-Protection): 20% |
| CS(=O)(=O)Nn1c(=O)[nH]c2cc(C(F)(F)F)c([C@H]3CCCO3)cc2c1=O [Example 10.0, N—((R)-2,4-dioxo-6-tetrahydro-furan-2-yl-7-trifluoromethyl-1,4-dihydro-2H-quinazolin-3-yl)-methanesulfonamide] | – | IC50 (AMPA receptor; [1]): 159 nM; responders at 50 mg/kg (OF1 mice; Mus musculus, po, pre-treatment time −0.5 h (footnote d), read-out: %-Protection): 0%; responders at 50 mg/kg (OF1 mice; [2]): 100% |
| CCC(OC)c1cc2c(=O)n(NS(C)(=O)=O)c(=O)[nH]c2cc1C(F)(F)F (stereo not shown) [Example 11.0, N-[2,4-Dioxo-6-(1-methoxy-propyl)-7-trifluoromethyl-1,4-dihydro-2H-quinazolin-3-yl]-methanesulfonamide] | – | IC50 (AMPA receptor; [1]): 317 nM; responders at 50 mg/kg (OF1 mice; [2]): 100% |
| CCC(O)c1cc2c(=O)n(NS(C)(=O)=O)c(=O)[nH]c2cc1C(F)(F)F (stereo not shown) [Example 12.0, N-[6-(1-hydroxy-propyl)-2,4-dioxo-7-trifluoromethyl-1,4-dihydro-2H-quinazolin-3-yl]-methanesulfonamide] | – | IC50 (AMPA receptor; [1]): 162 nM; responders at 50 mg/kg (OF1 mice; [2]): 40% |
| CC(C)COC(C)c1cc2c(=O)n(NS(C)(=O)=O)c(=O)[nH]c2cc1C(F)(F)F (stereo not shown) [Example 24.0] | 1810 | – |
| CC(OC1CCCC1)c1cc2c(=O)n(NS(C)(=O)=O)c(=O)[nH]c2cc1C(F)(F)F (stereo not shown) [Example 25.0] | 540 | – |
| CCCC(OC)c1cc2c(=O)n(NS(C)(=O)=O)c(=O)[nH]c2cc1C(F)(F)F (stereo not shown) [Example 27.0] | 720 | – |
| CS(=O)(=O)Nn1c(=O)[nH]c2cc(C(F)(F)F)c(C3CCCCO3)cc2c1=O (stereo not shown) [Example 29.0] | 1080 | – |
| COCCn1nccc1-c1cc2c(=O)n(NS(C)(=O)=O)c(=O)[nH]c2cc1C(F)(F)F [Example 32.0] | 310 | – |
| CC(C)n1nccc1-c1cc2c(=O)n(NS(C)(=O)=O)c(=O)[nH]c2cc1CF [Example 33.0] | 440 | – |
| CC(C)n1nccc1-c1cc2c(=O)n(NS(C)(=O)=O)c(=O)[nH]c2cc1C(F)F [Example 35.0] | 110 | – |
| COCCn1nccc1-c1cc2c(=O)n(NS(C)(=O)=O)c(=O)[nH]c2cc1C(C)C [Example 36.0] | 320 | – |
| CS(=O)(=O)Nn1c(=O)[nH]c2cc(C(F)(F)F)c(-c3ccn[nH]3)cc2c1=O [Example 38.0] | 470 | – |
| CC(C)n1nccc1-c1cc2c(=O)n(NS(C)(=O)=O)c(=O)[nH]c2cc1C(C)(F)F [Example 40.0] | 210 | – |
| CC(F)c1cc2[nH]c(=O)n(NS(C)(=O)=O)c(=O)c2cc1-c1ccnn1C(C)C (stereo not shown) [Example 42.0] | 220 | – |
| CC(F)c1cc2[nH]c(=O)n(NS(C)(=O)=O)c(=O)c2cc1-c1ccnn1C (stereo not shown) [Example 43.0] | 700 | – |
| CC(C)c1cc2[nH]c(=O)n(NS(C)(=O)=O)c(=O)c2cc1C1CCOC1 (stereo not shown) [Example 44.0] | 2200 | – |
| CC(C)c1cc2[nH]c(=O)n(NS(C)(=O)=O)c(=O)c2cc1-c1ccnn1[C@@H]1CCOC1 [Example 45.0] | 560 | – |
| CC(OCc1ccccc1)c1cc2c(=O)n(NS(C)(=O)=O)c(=O)[nH]c2cc1C(F)(F)F (stereo not shown) [Example 51.0] | 780 | – |
| CC(OCC(F)(F)F)c1cc2c(=O)n(NS(C)(=O)=O)c(=O)[nH]c2cc1C(F)(F)F (stereo not shown) [Example 52.0] | 1120 | – |

The next lines start with results.

| IC50 (AMPA receptor; [3]) [nM] | SMILES | other results |
| --- | --- | --- |
| 510 | CCOC(CC)c1cc2c(=O)n(NS(C)(=O)=O)c(=O)[nH]c2cc1C(F)(F)F (stereo not shown) [Example 26.0] | – |
| 1040 | COC(c1cc2c(=O)n(NS(C)(=O)=O)c(=O)[nH]c2cc1C(F)(F)F)C(C)C (stereo not shown) [Example 28.0] | – |
| 220 | CS(=O)(=O)Nn1c(=O)[nH]c2cc(C(F)(F)F)c(C3CCOC3)cc2c1=O (stereo not shown) [Example 30.0] | – |
| 140 | CS(=O)(=O)Nn1c(=O)[nH]c2cc(C(F)(F)F)c(-c3ccnn3O)cc2c1=O [Example 31.0] | – |
| 260 | Cn1nccc1-c1cc2c(=O)n(NS(C)(=O)=O)c(=O)[nH]c2cc1C(F)F [Example 34.0] | – |
| 430 | CC(C)c1cc2[nH]c(=O)n(NS(C)(=O)=O)c(=O)c2cc1-c1ccnn1C(C)C [Example 37.0] | – |
| 770 | Cn1nccc1-c1cc2c(=O)n(NS(C)(=O)=O)c(=O)[nH]c2cc1CF [Example 39.0] | – |
| 580 | Cn1nccc1-c1cc2c(=O)n(NS(C)(=O)=O)c(=O)[nH]c2cc1C(C)(F)F [Example 41.0] | – |
| 1200 | CS(=O)(=O)Nn1c(=O)[nH]c2cc(C(F)(F)F)c(-c3ccnn3C3CCCC3)cc2c1=O [Example 46.0] | – |
| 370 | CS(=O)(=O)Nn1c(=O)[nH]c2cc(C(F)(F)F)c([C@H]3CO[C@@H](CO)C3)cc2c1=O [Example 47.0] | – |
| 520 | C[C@@H]1COC[C@@H]1c1cc2c(=O)n(NS(C)(=O)=O)c(=O)[nH]c2cc1C(F)(F)F [Example 48.0] | – |
| 3500 | CC(C)c1cc2[nH]c(=O)n(NS(C)(=O)=O)c(=O)c2cc1-c1ccnn1-c1ccccc1 [Example 49.0] | – |
| 1850 | CCOC(C)c1cc2c(=O)n(NS(C)(=O)=O)c(=O)[nH]c2cc1CC (stereo not shown) [Example 50.0] | – |
